Key:
[1] = literature (Ukai et al. 1998, Matsuno et al. 1996, Tottori et al. 1997, Kinsora et al. 1998); cited from earlier work
Male Swiss OF1 mice = experiment: Forced swim test in non-operated Swiss mice (duration of immobility); format: in vivo
Method: (§1) Male Swiss OF1 mice (Breeding center of the Faculty of Pharmacy, Montpellier, France), aged 5-6 weeks and weighing 30 ± 2 g are used throughout the study. Animals are housed in plastic cages in groups. They have free access to laboratory chow and water, except during behavioral experiments, and they are kept in a regulated environment (23 ± 1°C, 40-60% humidity) under a 12-hr light/dark cycle (light on at 7:00 a.m.). Experiments are carried out between 9:00 a.m. and 6:00 p.m., in a soundproof and air-regulated experimental room, to which mice are habituated at least 30 min before each experiment.
(§2) PROG and finasteride are suspended in sesame oil; other drugs are solubilized in distilled water or saline solution. Drugs are injected subcutaneously (s.c.) or intraperitoneally (i.p.), in a volume of 100 µl per 20 g of body weight.
(§3) Each mouse is placed individually in a glass cylinder (diameter 12 cm, height 24 cm) filled with water at a height of 12 cm. Water temperature is maintained at 22-23°C. The animal is forced to swim for 15 min on the first day. Animals are then allowed to return to their home cage. On the second day, each mouse is placed again into the water and forced to swim for 6 min. The session is videotaped and the duration of immobility during the last 5 min is measured. The mouse is considered as immobile when it stops struggling and moves only to remain floating in the water, keeping its head above water. Drugs are administered 30 min before the session on the second day. Finasteride is administered twice, 14 and 2 hr before the session on day 2.
(§4) Results are expressed as means ± S.E.M. Data are analyzed using the Dunnett's multiple comparisons test after an analyzis of variance (ANOVA, F values). The criterion for statistical significance is P < 0.05.

AdX/CX Swiss mice = experiment: Forced swim test in adrenalectomized/castrated (AdX/CX) Swiss mice; format: in vivo; conditions: for effect in AdX/CX animals as compared to non-operated mice: comparison of AdX/CX with non-operated animals; for influence of removal of circulating steroids on the antidepressant effect: AdX/CX versus non-operated mice
Method: as §1, §2, §3
About one week after habituation to the animal facilities, animals are anaesthetized with sodium pentobarbital 2%, 100 µl/30 g body weight i.p. Both adrenal glands are removed, through incisions in the back of the animal, just below the breast ribs. The skin is sutured. Then, both testes are ligatured and cut, through an incision in the scrotum. Animals received an injection of gentamycine 10 mg/kg i.p. and recovered within few hours from surgery. After surgery, drinking tap water is replaced by saccharose 1%, NaCI 0.9% solution. Animals are used for behavioral experiments six days after surgery.
as §4

**Q.** Which “antidepressant effects in animal models” value [1] does the source give for `C=CCN1CCC2(C)c3cc(O)ccc3CC1C2C` (single isomer, unassigned; (+)) [(+)-SKF-10,047] here?
**A.** reduce the immobility time in the forced swim test or are active in the tail suspension test

**Q.** And the immobility time (Male Swiss OF1 mice; 30 mg/kg, Fig. 1B)?
**A.** decreases the immobility time

**Q.** With `CC(C)=CCN1CCC2(C)c3cc(O)ccc3CC1C2C` (single isomer, unassigned; (+)) [(+)-pentazocine] as the molecule, how does the “antidepressant effects in animal models” value [1] read?
**A.** reduce the immobility time in the forced swim test or are active in the tail suspension test

**Q.** Which immobility time (Male Swiss OF1 mice; 10 mg/kg dose (5-60 mg/kg range tested), Fig. 3A) does the source give for `C[C@]12CC[C@H](OS(=O)(=O)O)CC1=CC[C@@H]1[C@@H]2CC[C@]2(C)C(=O)CC[C@@H]12` [DHEAS] here?
**A.** slightly but significantly shortens the immobility time

**Q.** And the immobility time (Male Swiss OF1 mice; dosages lower or higher than 10 mg/kg within 5-60 mg/kg, Fig. 3A)?
**A.** devoid of effect

**Q.** And the immobility time (AdX/CX Swiss mice; AdX/CX animals, 5-60 mg/kg dose-range, Fig. 7)?
**A.** significant diminution of the immobility time at all the doses examined

**Q.** And the “effect in AdX/CX animals as compared to non-operated mice” value (AdX/CX Swiss mice)?
**A.** in a more efficient manner as compared to non-operated animals

**Q.** Which “antidepressant effects in animal models” value [1] does the source give for `Cc1ccccc1NC(=N)Nc1ccccc1C` [DTG] here?
**A.** reduce the immobility time in the forced swim test or are active in the tail suspension test

**Q.** With `CC(C)(C)NC(=O)[C@H]1CC[C@H]2[C@@H]3CC[C@H]4NC(=O)C=C[C@]4(C)[C@H]3CC[C@]12C` [Finasteride, finasteride] as the molecule, how does the immobility time (AdX/CX Swiss mice; finasteride pretreatment (25 mg/kg s.c., 14 and 2 hr before session) in vehicle-treated AdX/CX mice, Fig. 5) read?
**A.** does not affect the immobility time

**Q.** And the “effect on the diminution of immobility time induced by igmesine” value (AdX/CX Swiss mice; finasteride pretreatment (25 mg/kg s.c., 14 and 2 hr before), igmesine 60 mg/kg, AdX/CX mice, Fig. 5)?
**A.** significantly alters the diminution induced by igmesine

**Q.** With `CCCN(CCC)CCc1ccc(OC)c(OCCc2ccccc2)c1` [NE-100] as the molecule, how does the immobility time (Male Swiss OF1 mice; 1-10 mg/kg i.p. dose-range, given alone, Fig. 1C) read?
**A.** does not affect the immobility time by itself

**Q.** And the “antagonism of the reduction of immobility time induced by igmesine” value (Male Swiss OF1 mice; NE-100 10 mg/kg pre-administered i.p. 15 min before igmesine, Fig. 1D)?
**A.** completely antagonizes the reduction of immobility time induced by igmesine

**Q.** And the “antagonism of the DHEAS-induced diminution of immobility time” value (Male Swiss OF1 mice; NE-100 i.p. 15 min before DHEAS, Fig. 4B)?
**A.** prevents the DHEAS-induced diminution of immobility time

**Q.** What about the “antagonism of the antidepressant effect of DHEAS” value (AdX/CX Swiss mice; NE-100 i.p. 15 min before DHEAS, AdX/CX mice, Fig. 8B) of the same molecule?
**A.** fully antagonizes

**Q.** What about the “antagonism of the antidepressant effect of igmesine” value (AdX/CX Swiss mice; NE-100 i.p. 15 min before igmesine, AdX/CX mice, Fig. 8A) of the same molecule?
**A.** fully antagonizes

**Q.** For `COc1cccc2c1CCC(=O)N2CCCN1CCN(c2cccc(Cl)c2)CC1` [OPC14523], which “antidepressant effects in animal models” value [1] is on record?
**A.** reduce the immobility time in the forced swim test or are active in the tail suspension test

**Q.** For `CC(=O)[C@H]1CC[C@H]2[C@@H]3CC=C4C[C@@H](OS(=O)(=O)O)CC[C@]4(C)[C@H]3CC[C@]12C` [PREGS], which immobility time (Male Swiss OF1 mice; 5-40 mg/kg dose range, Fig. 3B) is on record?
**A.** fails to affect the immobility time

**Q.** With `CC(=O)[C@H]1CC[C@H]2[C@@H]3CCC4=CC(=O)CC[C@]4(C)[C@H]3CC[C@]12C` [PROG, progesterone] as the molecule, how does the immobility time (Male Swiss OF1 mice; 5-60 mg/kg dose range, given alone, Fig. 3C) read?
**A.** does not affect the immobility time by itself

**Q.** And the “antagonism of the DHEAS effect on immobility time” value (Male Swiss OF1 mice; PROG 20-60 mg/kg pre-administered before DHEAS 10 mg/kg, Fig. 3D)?
**A.** significant antagonism of its effect

**Q.** What about the “antagonism of the igmesine-induced reduction of immobility” value (Male Swiss OF1 mice; PROG pre-administered i.p. 15 min before igmesine, Fig. 4A) of the same molecule?
**A.** fully blocks the igmesine-induced reduction of immobility

**Q.** Which “antidepressant effects in animal models” value [1] does the source give for `COc1ccc(CCN2CCN(CCCc3ccccc3)CC2)cc1OC` [SA4503] here?
**A.** reduce the immobility time in the forced swim test or are active in the tail suspension test

**Q.** With `CNCCCN1c2ccccc2CCc2ccccc21` [desipramine] as the molecule, how does the immobility time (Male Swiss OF1 mice; 30 and 60 mg/kg i.p., Fig. 2) read?
**A.** shortened the immobility time

**Q.** And the “influence of removal of circulating steroids on the antidepressant effect” value (AdX/CX Swiss mice)?
**A.** failed to be affected by the removal of circulating steroids

**Q.** Which results are given for `CNCCC(Oc1ccc(C(F)(F)F)cc1)c1ccccc1` (stereo not drawn) [fluoxetine]?
**A.** immobility time (Male Swiss OF1 mice; 30 and 60 mg/kg i.p., Fig. 2): shortened the immobility time; antidepressant effect in the forced swim test (AdX/CX Swiss mice; AdX/CX Swiss mice, i.p. 30 min before session on day 2, Fig. 6): antidepressant effect; influence of removal of circulating steroids on the antidepressant effect (AdX/CX Swiss mice): failed to be affected by the removal of circulating steroids

**Q.** Which results are given for `CCC(C/C=C/c1ccccc1)(c1ccccc1)N(C)CC1CC1.Cl` (stereo not drawn) [igmesine, (E)-(+)-N-(cyclopropylmethyl)-α-ethyl-N-methyl-α-(3-phenyl-2-propenyl)benzenemethanamine hydrochloride]?
**A.** antidepressant effects in animal models [1]: reduce the immobility time in the forced swim test or are active in the tail suspension test; immobility time (Male Swiss OF1 mice; 60 mg/kg i.p., 30 min before session on day 2, Fig. 1A): significantly shortens the immobility time; immobility time (AdX/CX Swiss mice; AdX/CX animals, 20 and 60 mg/kg, dose-dependent, Fig. 5): shortens significantly the immobility time; effect in AdX/CX animals as compared to non-operated mice (AdX/CX Swiss mice): enhanced

Source: patent EP1078630A1, “Use of sigma receptor agonists for the treatment of depression” (WARNER-LAMBERT COMPANY, priority 1999, dated 2001)
